Test results: patent US12083084B2, “Method for enhancing energy production and metabolism in cells” (REPLICON HEALTH OY, priority 2013, dated 2024)
Values joined by “and” are separate entries in the source; they are usually repeats but may differ in a detail not shown here. Equal values may be shown once. Marks after values point to notes of the source that are not given here.

Experiments:
[1] = 400 m running experiment; type: in vivo, human
Description: Two healthy male volunteers S1 and S3 from Example 2.1 participated in 400 m running experiment with 4 day administration of DGAcs and without it. The experiments were done at 2-3 pm in the afternoon. In DGA experiment additional dose of DGAcs (5 mg/kg) was taken before lunch at 11 am, and lunch was eaten at 12 am. […] The length of the 400 m exercise at full speed was too much especially for S1. […] This difference was striking especially for S3 and can be as a result in decreased acidosis.

[2] = cited from earlier work
[3] = Hepatic free glycerol after 3 week feeding; type: in vivo, rat
Text: From the above experiment altogether 12 rats were chosen from 0.1 g/kg/day DGAcs group (N=6) and zero control (N=6) for a measurement of free glycerol from liver samples. Liver samples contained also blood entering the liver from other tissues, thus on top of hepatic tissues the samples reflect also the metabolic situation in other tissues of the body than just the liver.
(§1) In this experiment nutrition intake, except of course for DGAcs, was controlled to be exactly the same during the experimental day, and three day before the experiment. For AA rats, that are used to alcohol but didn't receive any alcohol in 3 day before the experiment, catabolic redox-activity in the cytosol was controlled by giving rats ethanol (equaling 1.2 per mille blood alcohol concentration, which represents only mild alcohol intoxication to the AA rats). The rate of ethanol oxidation remained the same in all groups.
(§2) Experimental session started at 8:00 to 9:00 am. To diminish possible pain during the experiments, all animals were injected subcutaneously with buprenorphine (0.01 mg/kg) a few minutes before the blood samples. During the experimental session no difference in other metabolic activity, e.g. rate of ethanol oxidation, between the control and treatment group was detected from blood samples. Immediately after the last blood sample, the animals were anesthetized with pentobarbital (40 mg/kg IP, 1% [wt/vol] in saline). Thereafter (5-10 minutes), liver pieces were quickly (within 2-4 seconds) excised and freeze-clamped. Liver samples were stored at 718 C until glycerol determination. […] The resulting supernatants were used for free glycerol measurement with an enzymatic end point commercial assay kit (Boehringer-Mannheim, R-Biopharm, Darmstadt, Germany) according to the manufacturer's protocol except that the assays were modified for use with small volumes of supernatant using a 96-well microplate reader (Labsystems Multiskan RS, Helsinki, Finland). […]

[4] = tested on: human hepatocytes; assay: Gene expression from hepatocytes lysates; type: cell-based; details: N = 5
[5] = 4.5 day acute test, wide blood panel (Example 2.3.1); type: in vivo, human; details: for increased level of blood triglycerides: 4.5 day test
Description: In earlier in vivo experiments (Example 2.1 and 2.2) the last DGAcs was taken in previous night. In this Example the last dose was double in size (=some 10 mg/kg), and it was taken in the same morning as the collection of blood samples. Higher than “normal” therapeutic dose and short time to blood measurement was chosen in order to see a clearer dose response compared to zero control. On top of very wide blood panel, like in Examples 2.1 and 2.2, also gene expression analyses from peripheral leukocytes (Example 2.3.2 below), and concentration analyses from collected plasma samples (Example 2.3.3) was conducted. Also glucose tolerance test and related insulin measurements (Example 2.3.4 below) was conducted. By comparing results of subject 1 (S1) from Example 2.1 and in Example 2.3.1 (below), it is fairly straightforward to see that this “high dose and immediate response strategy” was efficient, and it produced even very important deviations in some parameters due to different administrations.
In this Example the 4 day experiment in Example 2.1 was extended into 4.5 day experiment by additional DGAcs dose in the morning before blood measurement. Same wide fasting blood panel consisting of 25 different metrics and full blood count was measured for all participants (sample analytics by United Medix Laboratories, Finland).
Two healthy volunteers (S1 and S9) and two (otherwise healthy) volunteers using statin medication (S10 and S11) were chosen for the experiment. The test set up was double blinded. S1 had participated in the earlier 4 day experiment (see Table 3 above and also to a 3 week pilot testing) and served as an important positive control on the efficacy of the DGAcs. Statin group on the other hand was chosen as some kind of a negative control because statins to some extend can possibly counter act the positive effects of the DGAcs and on the other hand also have similar health effects. Statins suppress mevalonate pathway by inhibiting HMG Coa reductase activity and also disturb balancing of cellular NADPH/NADP^+ levels (FIGS. 3b and 4). […] Statin treatment group was not expected to yield positive results but possibly vice versa. For S10 the statin dose was halved two weeks before the test from 20 mg to 10 mg (Simvastatin). For S11 statin treatment was kept at 20 mg per day (also Simvastatin).

[6] = Rate of ethanol oxidation in rats; type: in vivo, rat; details: AA rats given ethanol (1.2 per mille), not statistically significant
Text: as §1
as §2, with “samples.” for “samples. Immediately after the last blood sample, the animals were anesthetized with pentobarbital (40 mg/kg IP, 1% [wt/vol] in saline). Thereafter (5-10 minutes), liver pieces were quickly (within 2-4 seconds) excised and freeze-clamped. Liver samples were stored at 718 C until glycerol determination.”

[7] = Glucose tolerance test, plasma glucose and insulin; type: in vivo, human; details: 4.5 day experiment
Description: In the 4.5 day experiment also standard, fasting glucose tolerance test was conducted for S1 and S9 starting after 2.5 hours of last administration of DGAcs. Blood glucose levels were measured at 0 h, 60 min and 120 minutes.

[8] = 4.5 day, 5 mg/kg twice a day, last dose 10 mg/kg, 2.5 hours after last dose, healthy males S1 and S9, fasting blood, vs 0-control

O=C(O)[C@H](O)CO [DGA, D-glyceric acid]
readiness to resume other physical exercise after 400 m run ([1]; S1 and S3, qualitative): much more ready to resume other physical exercise
400 m running times, control vs DGA ([1]; S3, 4 day administration + 5 mg/kg before lunch): no significant differences
solubility [2]: readily soluble in water and alcohol

O.O.O=C([O-])[C@H](O)CO.O=C([O-])[C@H](O)CO.[Ca+2] [DGAcs, D-glyceric acid, calcium salt dehydrate]
glycerol levels increased compared to the control ([3]; 0.1 g/kg group): 59%
increase in the concentration of free glycerol compared to the control samples ([3]; 0.1 g/kg group): roughly 0.17 g/kg
Free glycerol concentration (hepatic, including extracellular matrix) ([3]; 0.1 g/kg per day in diet for 3 weeks, AA rats, n = 6, no acute dose): 4.88 +/− 1.21 (6) * Micromoles Per Gram Wet Weight Tissue
CYP2B6 gene expression deviation from control ([4]; donor alpha, 1.4 (μM)): 38%
PGC-1a gene expression deviation from control ([4]; donor alpha, 1.4 (μM)): 5%
CYP2B6 gene expression deviation from control ([4]; donor alpha, 14 (μM)): 45%
PGC-1a gene expression deviation from control ([4]; donor alpha, 14 (μM)): 20%
CYP2B6 gene expression deviation from control ([4]; donor one, 1.4 (μM)): 8%
HO-1 gene expression deviation from control ([4]; donor one, 1.4 (μM)): 54%
PGC-1a gene expression deviation from control ([4]; donor one, 1.4 (μM)): 12%
CYP2B6 gene expression deviation from control ([4]; donor one, 14 (μM)): 3%
HO-1 gene expression deviation from control ([4]; donor one, 14 (μM)): 50%
PGC-1a gene expression deviation from control ([4]; donor one, 14 (μM)): 42%
CYP2B6 gene expression deviation from control ([4]; donor three, 1.4 (μM)): 29%
HO-1 gene expression deviation from control ([4]; donor three, 1.4 (μM)): 83%
PGC-1a gene expression deviation from control ([4]; donor three, 1.4 (μM)): 45%
CYP2B6 gene expression deviation from control ([4]; donor three, 14 (μM)): 49%
HO-1 gene expression deviation from control ([4]; donor three, 14 (μM)): 21%
PGC-1a gene expression deviation from control ([4]; donor three, 14 (μM)): 1%
HDL, 4.5 day change [5, 8]: 1% and −1%
S-Afos, 4.5 day change [5, 8]: 8% and 12%
S-Alb, 4.5 day change [5, 8]: 5% and 10%
S-Amyl, 4.5 day change [5, 8]: −5% and −3%
S-Cal, 4.5 day change [5, 8]: 4% and 3%
S-LDH, 4.5 day change [5, 8]: −4% and −7%
S-Mg, 4.5 day change [5, 8]: 5% and 0%
S-Na, 4.5 day change [5, 8]: 1%
S-Uraat, 4.5 day change [5, 8]: 4% and −1%
fS-Gluk, 4.5 day change [5, 8]: −2% and 4%
fS-Krea, 4.5 day change [5, 8]: 3% and 9%
fS-Transf, 4.5 day change [5, 8]: 5% and 8%
fS-Trigly, 4.5 day change [5, 8]: −3% and −5%
blood LDH declined ([5]; S1, 4.5 day test): 4%
blood urea decline ([5]; S1, 4.5 day test): 7%
creatine kinase (S-CK) declined ([5]; S1, 4.5 day test): 14%
AST/ALT (ratio) after treatment ([5]; S1, 4.5 day test (zero control 1.32)): 0.96
increased level of blood triglycerides ([5]; S10, statin group (Simvastatin 10 mg)): +83.5%
increased level of blood triglycerides ([5]; S11, statin group (Simvastatin 20 mg)): +25.6%
rate of ethanol oxidation, maximum acceleration compared to control [6]: ~3.6%
drop of blood glucose at 120 min ([7]; S1 (starting level 5.0 mmol/L), 75 g glucose): marginal
blood glucose lower at 120 min compared to the control ([7]; S9 (fasting blood glucose 6.0 mmol/L), 75 g glucose): ~0.6 mmol/L
blood insulin level at 60 minutes ([7]; S9, 75 g glucose): higher insulin level
